Literature values in patent publication US20100035939A1, “PENETRATING CARRIER, ANTI-FUNGAL COMPOSITION USING THE SAME AND METHOD FOR TREATMENT OF DERMATOPHYTES” (priority 2004, published 2010).

Tested on: fungal toenail

SMILES: CN(C/C=C/C#CC(C)(C)C)Cc1cccc2ccccc12 [terbinafine]
- patients with a serious reaction to the drug (in vivo, po): One in 500
- reoccurrence of the fungal toenail (oral administration, in the first year): 15%
